From patent publication US20200022964A1, “COMPOSITIONS AND METHODS FOR TREATMENT OF INFLAMMATORY AUTOIMMUNE DISEASES” (New York University, priority 2018, published 2020)

What was measured:
[1] = tested on: TNF-α/NF-κB pathway; experiment: TNF-tg:NF-κB-Luc double mutant mice, luciferase imaging by IVIS; type: in vivo; conditions: for in vivo inhibition of the TNF-α/NF-κB pathway: FFD 2 or 10 mg/kg, TFD 10 or 50 mg/kg orally for 7 days; for TNF-tg:NF-κB activated luciferase in vivo: third round screen, treatment for 7 days
Source text: In vitro and in vivo screen of FDA-approved drug library. NF-κB-bla THP-1 cell line in which NF-κB beta-lactamase reporter gene was stably integrated, RAW 264.7 macrophages in which NF-κB luciferase reporter gene was transiently transfected, and TNF-tg:NF-κB-Luc double mutant reporter mice were employed to screen the drug library.
Screening and confirming the drugs' anti-TNF activity in vivo. TNF-tg mice and NF-κB luc mice were purchased from Jackson Laboratory and housed in Skirball Animal Facility of New York University Langone Medical Center. All animal experiments have been approved by Institutional Animal Care and Use Committee (IACUC) of New York University School of Medicine. We generated the TNF-tg/NF-κB-Luc mice by mating TNF-tg mice with NF-κB-Luc mice. After genotypes were confirmed by genotyping and bioluminescence via IVIS, the TNF-tg/NF-κB-Luc mice were orally treated daily with one of the 8 drugs selected in screen two for 7 days. The luciferase activity was detected by IVIS 15 minutes after the injection of D-Luciferin (LUCK-1G, Gold biotechnology).

[2] = tested on: TNF-α; experiment: ELISA of TNF-α induced release of IL-1β and IL-6 in BMDMs; type: cell-based, mice; conditions: TNF-α 10 ng/mL; for TNF-α induced releases of IL-1β and IL-6: FFD 1, 10 μM, TFD 0.1, 1 μM, 48 hours
Experimental: Primary bone marrow derived macrophages (BMDMs) extraction. BMDMs were isolated from C57BL/6 and TNF-tg mice. After mice were sacrificed by cervical dislocation, the tibia and femur were isolated and both ends of the bones were cut to open the medullary cavity. Bone marrow cells were collected by centrifuge at 13000 g for 90 seconds and seeded in 6-well plates. Prior to their use in experiments, M-CSF (10 ng/ml, 576406, Biolegend) was added for 6 days to the BMDM culture medium.

[3] = target: TNF-α and TNFR1 (Homo sapiens, UniProt P19438); experiment: Solid phase binding of TNF-α to TNFR1
TNF-α and TNFR1, sequence (P19438 30-211 limits assumed, species assumed): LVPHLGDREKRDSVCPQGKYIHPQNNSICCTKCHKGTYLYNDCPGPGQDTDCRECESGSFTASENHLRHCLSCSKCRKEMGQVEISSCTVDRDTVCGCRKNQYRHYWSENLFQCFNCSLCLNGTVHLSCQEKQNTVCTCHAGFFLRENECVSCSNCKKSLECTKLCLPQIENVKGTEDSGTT
Experimental: Solid phase binding. […] Briefly, a 96-well ELISA plate was coated with 100 μL of 0.5 ng/μL TNFR1 at 4° C. overnight. The plate was washed with PBST 5 times, and 300 μL blocking buffer was added to each well followed by incubation at room temperature for 1 hour. After discarding the blocking buffer, 50 μL buffer containing drugs at concentrations ranging from 0.1 nM to 10^5 nM were added to the plate for 1 hour at room temperature. Three wells incubated with bovine serum albumin (BSA) served as negative controls and three wells containing TNF-α were set as positive controls. Without washing, 50 μL buffer containing 10 ng biotin-labeled TNF-α was added to each well and incubated at room temperature for 2 hours. The plate was washed and 100 μL buffer containing streptavidin-HPR was added and incubated at room temperature for 30 minutes. After a final wash, 100 μL TMB buffer was added to each well and the reaction was stopped when the positive control group turned blue. The plate was read by automatic plate reader at 450 nm.

[4] = tested on: TNFRs expressed on cell surface; experiment: Flow cytometry of biotin-labelled TNF-α binding to RAW264.7 cell surface; type: cell-based; conditions: RAW264.7 cells; FFD 10 μM, TFD 1 μM overnight
Experimental: Flow cytometry. […] RAW 264.7 cells were seeded in a 12-well plate. […] Then the samples were analyzed at NYU core facilities using a FACS Calibur cell analyzer with CellQuest software.

[5] = target: T1, cPLA2 (Homo sapiens, UniProt P47712); experiment: cPLA2 activity assay in cPLA2-transfected RAW264.7 cells; type: cell-based; conditions: TNF-α 10 ng/ml; TFD 0.1 or 1 μM, FFD 1 or 10 μM overnight
T1 construct: expressed in transfected cells; host or cells: RAW264.7
T1 sequence (P47712 whole entry): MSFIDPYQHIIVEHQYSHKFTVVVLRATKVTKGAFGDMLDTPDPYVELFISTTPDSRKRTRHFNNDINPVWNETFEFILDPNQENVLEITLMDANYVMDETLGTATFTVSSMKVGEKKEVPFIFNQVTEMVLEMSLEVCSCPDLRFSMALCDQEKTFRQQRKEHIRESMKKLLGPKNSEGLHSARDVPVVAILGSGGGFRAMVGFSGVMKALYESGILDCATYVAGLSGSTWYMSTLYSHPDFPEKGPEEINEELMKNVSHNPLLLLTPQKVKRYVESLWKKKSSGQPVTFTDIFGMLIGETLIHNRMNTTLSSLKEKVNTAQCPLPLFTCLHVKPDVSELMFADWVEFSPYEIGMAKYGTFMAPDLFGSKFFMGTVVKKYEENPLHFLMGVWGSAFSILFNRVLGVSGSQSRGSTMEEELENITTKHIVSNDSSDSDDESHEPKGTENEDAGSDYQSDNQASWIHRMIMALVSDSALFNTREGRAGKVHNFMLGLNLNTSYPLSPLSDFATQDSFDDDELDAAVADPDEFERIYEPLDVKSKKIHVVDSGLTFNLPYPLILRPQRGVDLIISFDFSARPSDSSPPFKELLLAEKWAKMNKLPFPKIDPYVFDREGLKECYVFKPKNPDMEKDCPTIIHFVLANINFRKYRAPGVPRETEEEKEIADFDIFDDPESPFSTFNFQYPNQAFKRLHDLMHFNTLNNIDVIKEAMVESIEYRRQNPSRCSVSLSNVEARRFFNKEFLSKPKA
Experimental: cPLA2 activity assay. RAW264.7 cells were transfected with an expression plasmid encoding cPLA2. 24 hours later, the transfected cells were treated with TNF-α (10 ng/ml) and ATK (1 μM), or TFD (0.1 μM or 1 μM), or FFD (1 μM or 10 μM) overnight. Then the cells were collected and lysed. Cell lysate was used for measurement of cPLA2 activity using a commercial ELISA kit (765021, Cayman Chemical). Briefly, protein concentration of the cell lysate was measured by bicinchoninic acid assay and equal amounts of protein from each lysate sample were incubated with cPLA2 substrate (Arachidonoyl Thio-PC) at room temperature. One hour later, DTNB/EGTA was added to stop the enzyme catalysis, and then the absorbance was read at 414 nm using a plate reader (SpectraMax i3x, 5025027A, Molecular Devices).

[6] = tested on: TNF-α induced AA production; experiment: Arachidonic acid detection in BMDMs; type: cell-based, mice; conditions: TNF-α 10 ng/mL, 48 hours
Source text: Arachidonic acid detection. […] The result was detected at 450nm by automatic plate reader (SpectraMax i3x system, 5025027A, Molecular Devices). ATK was implemented as a positive control.

[7] = tested on: M1 and M2 macrophages; experiment: Macrophage polarization in vitro (BMDMs) and in vivo (spleen of TNF-α Tg mice); type: cell-based; conditions: in vitro BMDMs and spleen of treated TNF-α Tg mice
Experimental: Macrophage polarization. […] INFγ (25 ng/mL) and LPS (250 ng/mL) were added to BMDMs to induce M1 polarization while IL-4(20 ng/mL) was used to induce M2 polarization, with or without adding FFD (1 or 10 μM) or TFD (0.1 or 1μM), and cells were cultured for 24 hours. mRNA were extracted by RNA Mini kit (74106, QIAGEN).
Frozen splenic tissue specimens from TNFα Tg mice treated with or without TFD or FFD were stained and analyzed dual immunofluorescence. All sections were permeabilized with 0.1% NP40 in PBS, and then blocked in 5% donkey serum for 30 min at RT, followed by incubated with anti-IFNg (Th1), anti-IL-4 (Th2), anti-IL17 (Th17) and anti-foxp3 (Treg) diluted in 5% donkey serum at 4° C. overnight. On the second day, after washed 3 times in PBS, the sections were incubated with Cy2-conjugated donkey anti-rat IgG for 30 min at RT. After wash, the sections were furthered stained with FITC conjugated anti-CD4 for I hour at RT. To determine the macrophage polarization, sections were double stained with anti-CD68 and iNOS (M1) or CD206 (M2). DAPI were used to stain the nuclei. The fluorescence intensity of cells was quantified by Image J software.

[8] = tested on: TNF-tg mice; experiment: hTNF-tg mouse model of inflammatory arthritis; conditions: for serum levels of IL-1β and IL-6: compared with the control group; for clinical scores of arthritis: oral daily from 8 weeks of age, 13 weeks, FFD 10 mg/kg, TFD 50 mg/kg; for therapeutic effects (swelling score): treatment started at average score of approximately eight points, FFD 0.4, 2, 10 mg/kg, TFD 2, 10, 50 mg/kg oral, 8 weeks; for swelling score once the treatment resumed: treatment stopped at 17-week and resumed at 19-week time point
Experimental: Six mice in each group. Swelling scores were assessed weekly in accordance with the scoring system offered by the company. The swelling scores were taken as the sum of the scores from digits, paws, wrists and ankles with the highest possible score for each mouse at 24. The score system is: 20 digits (0=normal, 0.2=one or more swollen joints), 4 paws (0=normal, 1=noticeable swollen, 2=severe swollen), 2 wrists (0=normal, 1=noticeable swollen, 2=severe swollen), and 2 ankles (0=normal, 2=noticeable swollen, 4=severe swollen). At the end of treatment and observation, mice were sacrificed for collection of sera, spleens and ankles.

Row | Structure (SMILES) | in vivo inhibition of the TNF-α/NF-κB pathway [1] | TNF-tg:NF-κB activated luciferase in vivo [1] | effect of AA supplementation on inhibition of TNF-α induced release of IL-1β and IL6 ([2]; AA 10 μM, FFD 10 μM) | TNF-α induced releases of IL-1β and IL-6 [2] | binding of TNF-α to TNFR1 in vitro [3] | binding of TNF-α to the cell surface [4] | TNF-α induced cPLA2 activity [5] | TNF-α induced AA production [6] | anti-inflammatory M2 macrophages [7] | inflammatory M1 macrophages [7] | clinical scores of arthritis, comparison with MTX ([8]; prevention, FFD 10 mg/kg vs MTX 2 mg/kg oral daily) | serum levels of IL-1β and IL-6 ([8]; prevention) | clinical scores of arthritis ([8]; prevention) | therapeutic effects (swelling score) [8] | swelling score once the treatment resumed [8]
1 | CC(C)(C(=O)O)c1ccc(C(O)CCCN2CCC(C(O)(c3ccccc3)c3ccccc3)CC2)cc1 (stereo not shown) [fexofenadine] | dose-dependent inhibition | effectively inhibit | eliminated the inhibitory influence | abolished | did not affect | did not affect | completely abolished | inhibited | markedly increased | significantly inhibited | more effective than MTX | significantly reduced | significant reduction | effective therapeutic effects in a dose-dependent manner | immediate reduction
2 | CC(C)(C)c1ccc(C(O)CCCN2CCC(C(O)(c3ccccc3)c3ccccc3)CC2)cc1 (stereo not shown) [terfenadine] | dose-dependent inhibition | effectively inhibit | – | abolished | did not affect | did not affect | completely abolished | inhibited | markedly increased | significantly inhibited | – | significantly reduced | significant reduction | effective therapeutic effects in a dose-dependent manner | immediate reduction
